How the values were obtained:
Assay in all cases: relative viability (nuclei count vs DMSO), 5 days (fraction); higher = more cells survive
A-427 = tested on: A-427
In short: (§1)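 Relative viability equals treated-well nuclei counts divided by vehicle-well nuclei counts. Counts came from 4× images of lung cancer cell lines grown in 1536-well plates for 5 days after pin-tool dosing on the day after seeding. Dosing used one drug alone or a fixed anchor-drug dose plus five library-drug doses (not always all listed) in √10 steps, and values are medians of duplicate plates.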

A549 = tested on: A549
In short: as §1

CAL-12T = tested on: CAL-12T
In short: as §1

Calu-6 = tested on: Calu-6
In short: as §1

EBC-1 = tested on: EBC-1
In short: as §1

IA-LM = tested on: IA-LM
In short: as §1

LK-2 = tested on: LK-2
In short: as §1

NCI-H1299 = tested on: NCI-H1299
In short: as §1

NCI-H1703 = tested on: NCI-H1703
In short: as §1

NCI-H1734 = tested on: NCI-H1734
In short: as §1

NCI-H2009 = tested on: NCI-H2009
In short: as §1

UMC-11 = tested on: UMC-11
In short: as §1

`O=c1cc(N2CCOCC2)oc2c(-c3cccc4c3sc3ccccc34)cccc12` + Cc1nc(NC(=O)N2CCC[C@H]2C(N)=O)sc1-c1ccnc(C(C)(C)C(F)(F)F)c1 [Alpelisib] (partner 2 µM) was tested. Which relative viability (A-427; first compound 0.01 µM) did it give?
Its relative viability is 1.11.

And the relative viability (A-427; first compound 0.03162 µM)?
Its relative viability is 1.12.

What about the relative viability (A-427; first compound 0.1 µM) of the same compound?
Its relative viability is 1.03.

And the relative viability (A-427; first compound 0.3162 µM)?
The relative viability was 1.04.

And the relative viability (A-427; first compound 1 µM)?
Its relative viability is 1.09.

What about the relative viability (A549; first compound 0.01 µM) of the same compound?
The relative viability was 0.866.

What about the relative viability (A549; first compound 0.03162 µM) of the same compound?
The relative viability was 0.775.

And the relative viability (A549; first compound 0.1 µM)?
Its relative viability is 0.814.

And the relative viability (A549; first compound 0.3162 µM)?
The relative viability was 0.811.

And the relative viability (A549; first compound 1 µM)?
Its relative viability is 0.845.

What about the relative viability (CAL-12T; first compound 0.01 µM) of the same compound?
Its relative viability is 1.29.

What about the relative viability (CAL-12T; first compound 0.03162 µM) of the same compound?
Its relative viability is 1.1.

What about the relative viability (CAL-12T; first compound 0.1 µM) of the same compound?
Its relative viability is 1.13.

And the relative viability (CAL-12T; first compound 0.3162 µM)?
Its relative viability is 1.27.

What about the relative viability (CAL-12T; first compound 1 µM) of the same compound?
Its relative viability is 1.1.

What about the relative viability (Calu-6; first compound 0.01 µM) of the same compound?
The relative viability was 0.98.

What about the relative viability (Calu-6; first compound 0.03162 µM) of the same compound?
Its relative viability is 1.05.

And the relative viability (Calu-6; first compound 0.1 µM)?
The relative viability was 1.01.

And the relative viability (Calu-6; first compound 0.3162 µM)?
The relative viability was 1.04.

And the relative viability (Calu-6; first compound 1 µM)?
Its relative viability is 0.974.

What about the relative viability (EBC-1; first compound 0.01 µM) of the same compound?
The relative viability was 0.977.

And the relative viability (EBC-1; first compound 0.03162 µM)?
The relative viability was 0.77.

And the relative viability (EBC-1; first compound 0.1 µM)?
Its relative viability is 0.837.

What about the relative viability (EBC-1; first compound 0.3162 µM) of the same compound?
The relative viability was 0.966.

What about the relative viability (EBC-1; first compound 1 µM) of the same compound?
Its relative viability is 0.827.

And the relative viability (IA-LM; first compound 0.01 µM)?
The relative viability was 0.837.

And the relative viability (IA-LM; first compound 0.03162 µM)?
Its relative viability is 0.769.

What about the relative viability (IA-LM; first compound 0.1 µM) of the same compound?
The relative viability was 0.828.

What about the relative viability (IA-LM; first compound 0.3162 µM) of the same compound?
The relative viability was 0.736.

And the relative viability (IA-LM; first compound 1 µM)?
The relative viability was 0.735.

And the relative viability (LK-2; first compound 0.01 µM)?
Its relative viability is 1.1.

What about the relative viability (LK-2; first compound 0.03162 µM) of the same compound?
Its relative viability is 1.01.

What about the relative viability (LK-2; first compound 0.1 µM) of the same compound?
Its relative viability is 1.14.

And the relative viability (LK-2; first compound 0.3162 µM)?
The relative viability was 1.03.

And the relative viability (LK-2; first compound 1 µM)?
Its relative viability is 1.25.

And the relative viability (NCI-H1299; first compound 0.01 µM)?
Its relative viability is 1.05.

And the relative viability (NCI-H1299; first compound 0.03162 µM)?
The relative viability was 1.07.

And the relative viability (NCI-H1299; first compound 0.1 µM)?
The relative viability was 1.11.

And the relative viability (NCI-H1299; first compound 0.3162 µM)?
Its relative viability is 1.09.

And the relative viability (NCI-H1299; first compound 1 µM)?
The relative viability was 1.09.

What about the relative viability (NCI-H1703; first compound 0.01 µM) of the same compound?
The relative viability was 0.538.

What about the relative viability (NCI-H1703; first compound 0.03162 µM) of the same compound?
The relative viability was 0.33.

What about the relative viability (NCI-H1703; first compound 0.1 µM) of the same compound?
The relative viability was 0.331.

What about the relative viability (NCI-H1703; first compound 0.3162 µM) of the same compound?
The relative viability was 0.317.

What about the relative viability (NCI-H1703; first compound 1 µM) of the same compound?
The relative viability was 0.317.

What about the relative viability (NCI-H1734; first compound 0.01 µM) of the same compound?
The relative viability was 0.7.

What about the relative viability (NCI-H1734; first compound 0.03162 µM) of the same compound?
The relative viability was 0.727.

And the relative viability (NCI-H1734; first compound 0.1 µM)?
The relative viability was 0.686.

And the relative viability (NCI-H1734; first compound 0.3162 µM)?
Its relative viability is 0.698.

And the relative viability (NCI-H1734; first compound 1 µM)?
The relative viability was 0.623.

What about the relative viability (NCI-H2009; first compound 0.01 µM) of the same compound?
The relative viability was 1.12.

And the relative viability (NCI-H2009; first compound 0.03162 µM)?
The relative viability was 1.14.

And the relative viability (NCI-H2009; first compound 0.1 µM)?
The relative viability was 1.18.

What about the relative viability (NCI-H2009; first compound 0.3162 µM) of the same compound?
Its relative viability is 1.15.

What about the relative viability (NCI-H2009; first compound 1 µM) of the same compound?
Its relative viability is 1.13.

What about the relative viability (UMC-11; first compound 0.01 µM) of the same compound?
The relative viability was 0.995.

And the relative viability (UMC-11; first compound 0.03162 µM)?
The relative viability was 1.01.

And the relative viability (UMC-11; first compound 0.1 µM)?
The relative viability was 0.986.

And the relative viability (UMC-11; first compound 0.3162 µM)?
Its relative viability is 0.979.

What about the relative viability (UMC-11; first compound 1 µM) of the same compound?
The relative viability was 0.872.

With `O=c1cc(-c2cccc3c2Sc2ccccc2S3)oc(N2CCOCC2)c1` + C[C@]1(O)C[C@@H](c2nc(-c3ccc4ccc(-c5ccccc5)nc4c3)c3c(N)nccn32)C1 [Linsitinib] (partner 1 µM) as the compound, how does the relative viability (A-427; first compound 0.08 µM) read?
The relative viability was 1.09.

And the relative viability (A-427; first compound 0.253 µM)?
Its relative viability is 0.959.

And the relative viability (A-427; first compound 0.8 µM)?
Its relative viability is 1.19.

What about the relative viability (A-427; first compound 2.53 µM) of the same compound?
Its relative viability is 1.07.

What about the relative viability (A-427; first compound 8 µM) of the same compound?
Its relative viability is 1.08.

And the relative viability (A549; first compound 0.08 µM)?
The relative viability was 0.586.

What about the relative viability (A549; first compound 0.253 µM) of the same compound?
The relative viability was 0.863.

What about the relative viability (A549; first compound 0.8 µM) of the same compound?
Its relative viability is 0.564.

What about the relative viability (A549; first compound 2.53 µM) of the same compound?
Its relative viability is 0.583.

And the relative viability (A549; first compound 8 µM)?
The relative viability was 0.666.

What about the relative viability (CAL-12T; first compound 0.08 µM) of the same compound?
Its relative viability is 0.73.

What about the relative viability (CAL-12T; first compound 0.253 µM) of the same compound?
Its relative viability is 0.861.

And the relative viability (CAL-12T; first compound 0.8 µM)?
Its relative viability is 0.899.

What about the relative viability (CAL-12T; first compound 2.53 µM) of the same compound?
The relative viability was 0.77.

And the relative viability (CAL-12T; first compound 8 µM)?
The relative viability was 0.503.

And the relative viability (Calu-6; first compound 0.08 µM)?
Its relative viability is 0.909.

And the relative viability (Calu-6; first compound 0.253 µM)?
The relative viability was 1.08.

What about the relative viability (Calu-6; first compound 0.8 µM) of the same compound?
Its relative viability is 0.988.

What about the relative viability (Calu-6; first compound 2.53 µM) of the same compound?
The relative viability was 0.934.

And the relative viability (Calu-6; first compound 8 µM)?
The relative viability was 1.02.

What about the relative viability (EBC-1; first compound 0.08 µM) of the same compound?
The relative viability was 0.706.

What about the relative viability (EBC-1; first compound 0.253 µM) of the same compound?
The relative viability was 1.14.

And the relative viability (EBC-1; first compound 0.8 µM)?
Its relative viability is 0.828.

What about the relative viability (EBC-1; first compound 2.53 µM) of the same compound?
Its relative viability is 0.871.

What about the relative viability (EBC-1; first compound 8 µM) of the same compound?
The relative viability was 0.91.

What about the relative viability (IA-LM; first compound 0.08 µM) of the same compound?
Its relative viability is 0.695.

What about the relative viability (IA-LM; first compound 0.253 µM) of the same compound?
The relative viability was 0.919.

And the relative viability (IA-LM; first compound 0.8 µM)?
The relative viability was 0.491.

What about the relative viability (IA-LM; first compound 2.53 µM) of the same compound?
The relative viability was 0.465.

What about the relative viability (IA-LM; first compound 8 µM) of the same compound?
Its relative viability is 0.343.

And the relative viability (LK-2; first compound 0.08 µM)?
Its relative viability is 0.64.

And the relative viability (LK-2; first compound 0.253 µM)?
The relative viability was 0.527.

What about the relative viability (LK-2; first compound 0.8 µM) of the same compound?
Its relative viability is 0.549.

And the relative viability (LK-2; first compound 2.53 µM)?
Its relative viability is 0.533.

And the relative viability (LK-2; first compound 8 µM)?
The relative viability was 0.651.

And the relative viability (NCI-H1299; first compound 0.08 µM)?
The relative viability was 0.987.

And the relative viability (NCI-H1299; first compound 0.253 µM)?
Its relative viability is 1.

What about the relative viability (NCI-H1299; first compound 0.8 µM) of the same compound?
The relative viability was 1.05.

What about the relative viability (NCI-H1299; first compound 2.53 µM) of the same compound?
Its relative viability is 1.03.

And the relative viability (NCI-H1299; first compound 8 µM)?
The relative viability was 0.984.

And the relative viability (NCI-H1703; first compound 0.08 µM)?
Its relative viability is 0.237.

What about the relative viability (NCI-H1703; first compound 0.253 µM) of the same compound?
Its relative viability is 0.636.

And the relative viability (NCI-H1703; first compound 0.8 µM)?
Its relative viability is 1.02.

What about the relative viability (NCI-H1703; first compound 2.53 µM) of the same compound?
Its relative viability is 0.779.

And the relative viability (NCI-H1703; first compound 8 µM)?
The relative viability was 0.636.

And the relative viability (NCI-H1734; first compound 0.08 µM)?
The relative viability was 0.854.

And the relative viability (NCI-H1734; first compound 0.253 µM)?
The relative viability was 1.16.

And the relative viability (NCI-H1734; first compound 0.8 µM)?
The relative viability was 1.

What about the relative viability (NCI-H1734; first compound 2.53 µM) of the same compound?
The relative viability was 0.876.

And the relative viability (NCI-H1734; first compound 8 µM)?
The relative viability was 1.13.

What about the relative viability (NCI-H2009; first compound 0.08 µM) of the same compound?
Its relative viability is 1.17.

And the relative viability (NCI-H2009; first compound 0.253 µM)?
Its relative viability is 1.22.

And the relative viability (NCI-H2009; first compound 0.8 µM)?
Its relative viability is 1.19.

What about the relative viability (NCI-H2009; first compound 2.53 µM) of the same compound?
The relative viability was 1.12.

What about the relative viability (NCI-H2009; first compound 8 µM) of the same compound?
The relative viability was 1.11.

And the relative viability (UMC-11; first compound 0.08 µM)?
Its relative viability is 1.16.

What about the relative viability (UMC-11; first compound 0.253 µM) of the same compound?
The relative viability was 1.17.

And the relative viability (UMC-11; first compound 0.8 µM)?
The relative viability was 1.18.

And the relative viability (UMC-11; first compound 2.53 µM)?
Its relative viability is 1.06.

And the relative viability (UMC-11; first compound 8 µM)?
Its relative viability is 1.23.
